{"source": "patent US20240425475A1", "about": "“COMPOUND BASED ON QUINAZOLINE-SUBSTITUTED GLUTARIMIDE SKELETON AND USE THEREOF” (GLUETACS THERAPEUTICS (SHANGHAI) CO., LTD., priority 2022, published 2024)", "target": "human Cereblon WT GST-tagged protein (Homo sapiens (Human), UniProt Q96SW2)", "sequence (Q96SW2 whole entry)": "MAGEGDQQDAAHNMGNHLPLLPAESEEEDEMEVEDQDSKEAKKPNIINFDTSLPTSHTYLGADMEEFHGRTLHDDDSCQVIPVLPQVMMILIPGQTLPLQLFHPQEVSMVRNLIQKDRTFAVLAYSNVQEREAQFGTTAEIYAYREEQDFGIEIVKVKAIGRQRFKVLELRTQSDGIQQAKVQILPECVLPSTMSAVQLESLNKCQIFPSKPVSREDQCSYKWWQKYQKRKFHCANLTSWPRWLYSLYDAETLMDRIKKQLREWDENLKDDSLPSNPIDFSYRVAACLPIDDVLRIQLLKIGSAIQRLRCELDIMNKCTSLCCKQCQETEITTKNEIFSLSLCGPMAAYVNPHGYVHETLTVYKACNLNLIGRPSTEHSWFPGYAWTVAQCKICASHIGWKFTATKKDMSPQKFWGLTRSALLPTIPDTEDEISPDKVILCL", "test": "CRBN-binding affinity, CEREBLON BINDING kit (HTRF)", "conditions": "HTRF inhibitory activity, binding to CRBN", "description": "Determination of CRBN-Binding Affinity of Compounds\nThe CEREBLON BINDING kits (specification: 10,000 tests; product number: Catalog #64BDCRBNPEH; CISBIO company) was used to determine the CRBN binding ability of the compounds to be tested through a HTRF method (homogeneous time-resolved fluorescence). The specific methods are as follows: • 1. According to the instructions of the CEREBLON BINDING kits, the compounds to be tested of the present invention and lenalidomide were serially diluted using diluent #9 (1×) solution to obtain a final concentration of 2 μM for both the tested compounds and lenalidomide solution. • 2.2.5 μL of the above 2 μM of the tested compounds and lenalidomide solution, as well as the same volume of diluent #9 (1×) solution (solvent control group, Std0) were taken and added to each well of a 96-well plate, respectively. Then, 2.5 μL of (human Cereblon WT GST-tagged protein) solution was added to each well. Finally, 5 μL of the uniformly mixed thalidomide-Red reagent and GST Eu antibody working solution were added to each of the above wells. The final concentration of the tested compounds and lenalidomide in each well is 0.5 μM. • 3. The blank control wells were sequentially added with 2.5 μL of diluent #9 (1×) solution, 2.5 μL of PROTAC binding buffer, and 5 μL of uniformly mixed thalidomide-Red reagent and GST Eu antibody working solution. • 4. After sealing and incubating the solutions in the above wells at room temperature for 3 hours, the absorbance values at emission wavelengths of 620 nm and 665 nm were detected by the HTRF method using a Spark microplate reader (V3.1 SP1).\nThe corresponding CRBN binding inhibition rate was calculated using the following method: […]\nNote: OD 665 nmcompound is the absorbance value of each well of the compounds to be tested of the present disclosure at an emission wavelength of 665 nm.\nOD 620 nmcompound is the absorbance value of each well of the compounds to be tested of the present disclosure at an emission wavelength of 620 nm.\nOD 665 nmcontrol is the absorbance value of the blank control well at an emission wavelength of 665 nm.\nOD 620 nmcontrol is the absorbance value of the blank control well at an emission wavelength of 620 nm.\nOD 665 nmstd0 is the absorbance value of the solvent control well at an emission wavelength of 665 nm.\nOD 620 nmstd0 is the absorbance value of the solvent control well at an emission wavelength of 620 nm."}
{"smiles": "Cc1nc2cccc(NCCOCCNC34CC5CC(CC(C5)C3)C4)c2c(=O)n1C1CCC(=O)NC1=O", "note": "(stereo not shown) [GT-02234, 3-(5-((2-(2-(((1s,3s)-adamantan-1-yl)amino)ethoxy)ethyl)amino)-2-methyl-4-oxoquinazolin-3(4H)-yl)piperidine-2,6-dione]", "values": [{"measurement": "IC50", "result": 3340, "unit": "nM"}]}
{"smiles": "Cc1nc2cccc(NCCCNC3C4CC5CC(C4)CC3C5)c2c(=O)n1C1CCC(=O)NC1=O", "note": "(stereo not shown) [GT-02326, 3-(5-((3-(((1r,3r,5r,7r)-adamantan-2-yl)amino)propyl)amino)-2-methyl-4-oxoquinazolin-3(4H)-yl)piperidine-2,6-dione]", "values": [{"measurement": "IC50", "result": 700, "unit": "nM"}]}
{"smiles": "Cc1nc2cccc(NCCOCCNC34CC5CC(CC3C5)C4)c2c(=O)n1C1CCC(=O)NC1=O", "note": "(stereo not shown) [GT-02389, 3-(5-((2-(2-(((3as,6as)-hexahydro-2,5-methanopentalen-3a(1H)-yl)amino)ethoxy)ethyl)amino)-2-methyl-4-oxoquinazolin-3(4H)-yl)piperidine-2,6-dione]", "values": [{"measurement": "IC50", "result": 780, "unit": "nM"}]}
{"smiles": "Cc1nc2cccc(NCCCCNC3C4CC5CC(C4)CC3C5)c2c(=O)n1C1CCC(=O)NC1=O", "note": "(stereo not shown) [GT-02392, 3-(5-((4-(((1r,3r,5r,7r)-adamantan-2-yl)amino)butyl)amino)-2-methyl-4-oxoquinazolin-3(4H)-yl)piperidine-2,6-dione]", "values": [{"measurement": "IC50", "result": 990, "unit": "nM"}]}
{"smiles": "Cc1nc2cccc(NCCOCCOCCNC34CC5CC(CC3C5)C4)c2c(=O)n1C1CCC(=O)NC1=O", "note": "(stereo not shown) [GT-02497, 3-(5-((2-(2-(2-(((3as,6as)-hexahydro-2,5-methanopentalen-3a(1H)-yl)amino)ethoxy)ethoxy)ethyl)amino)-2-methyl-4-oxoquinazolin-3(4H)-yl)piperidine-2,6-dione]", "values": [{"measurement": "IC50", "result": 660, "unit": "nM"}]}
{"smiles": "Cc1nc2cccc(NCCCCCCCN3CCCN(C)CC3)c2c(=O)n1C1CCC(=O)NC1=O", "note": "(stereo not shown) [GT-02502, 3-(2-methyl-5-((7-(4-methyl-1,4-diazepan-1-yl)heptyl)amino)-4-oxoquinazolin-3(4H)-yl)piperidine-2,6-dione]", "values": [{"measurement": "IC50", "result": 1800, "unit": "nM"}]}
{"smiles": "Cc1nc2cccc(NC34CC5CC(CC(C5)C3)C4)c2c(=O)n1C1CCC(=O)NC1=O", "note": "(stereo not shown) [GT-02601, 3-(5-(((1s,3s)-adamantan-1-yl)amino)-2-methyl-4-oxoquinazolin-3(4H)-yl)piperidine-2,6-dione]", "values": [{"measurement": "IC50", "result": 2820, "unit": "nM"}]}
{"smiles": "Cc1nc2cccc(NCCCCCCCN3CC4CC(C3)O4)c2c(=O)n1C1CCC(=O)NC1=O", "note": "(stereo not shown) [GT-02621, 3-(5-((7-(6-oxa-3-azabicyclo[3.1.1]heptan-3-yl)heptyl)amino)-2-methyl-4-oxoquinazolin-3(4H)-yl)piperidine-2,6-dione]", "values": [{"measurement": "IC50", "result": 1040, "unit": "nM"}]}
{"smiles": "Cc1nc2cccc(NCCCCCCCN3CCC(N4CCOCC4)CC3)c2c(=O)n1C1CCC(=O)NC1=O", "note": "(stereo not shown) [GT-02622, 3-(2-methyl-5-((7-(4-morpholinopiperidin-1-yl)heptyl)amino)-4-oxoquinazolin-3(4H)-yl)piperidine-2,6-dione]", "values": [{"measurement": "IC50", "result": 2480, "unit": "nM"}]}
{"smiles": "Cc1nc2cccc(NCCCCCCCN3CCN(C4COC4)CC3)c2c(=O)n1C1CCC(=O)NC1=O", "note": "(stereo not shown) [GT-02623, 3-(2-methyl-5-((7-(4-(oxetan-3-yl)piperazin-1-yl)heptyl)amino)-4-oxoquinazolin-3(4H)-yl)piperidine-2,6-dione]", "values": [{"measurement": "IC50", "result": 2520, "unit": "nM"}]}
{"smiles": "Cc1nc2cccc(C#CCCCCCCN3CCN(C)CC3)c2c(=O)n1C1CCC(=O)NC1=O", "note": "(stereo not shown) [GT-02645, 3-(2-methyl-5-(8-(4-methylpiperazin-1-yl)oct-1-yn-1-yl)-4-oxoquinazolin-3(4H)-yl)piperidine-2,6-dione]", "values": [{"measurement": "IC50", "result": 2800, "unit": "nM"}]}
{"smiles": "Cc1nc2cccc(CCCCCNC34CC5CC(CC(C5)C3)C4)c2c(=O)n1C1CCC(=O)NC1=O", "note": "(stereo not shown) [GT-02759, 3-(5-(5-(((3s,5s,7s)-adamantan-1-yl)amino)pentyl)-2-methyl-4-oxoquinazolin-3(4H)-yl)piperidine-2,6-dione]", "values": [{"measurement": "IC50", "result": 50, "unit": "nM"}]}
{"smiles": "Cc1nc2cccc(CCCCCCCCN3CCC(N4CCN(C)CC4)CC3)c2c(=O)n1C1CCC(=O)NC1=O", "note": "(stereo not shown) [GT-02799, 3-(2-methyl-5-(8-(4-(4-methylpiperazin-1-yl)piperidin-1-yl)octyl)-4-oxoquinazolin-3(4H)-yl)piperidine-2,6-dione]", "values": [{"measurement": "IC50", "result": 2470, "unit": "nM"}]}
